pKi: −log10 of the molar value.
Molecular target: hMC2 receptor (Homo sapiens, UniProt Q01718)
Assay: hMC2 membrane binding assay ([125I]ACTH (1-39) Tyr23, SPA)
Parameters: scale not given here
Details: crude hMC2R membranes from CRE-bla-CHO-K1 cells expressing hMC2 receptor and hMRAP; [125I]ACTH (1-39) Tyr23 0.2 nM; 1.5 hours at room temperature; read-out: MC2R binding potency
Experimental: Crude membrane fractions are prepared from CRE-bla-CHO-K1 cells stably expressing hMC2 receptor and hMRAP accessory protein (Thermo Fisher). The cells are grown to 85-100% confluence on standard tissue culture dishes in GlutaMax DMEM growth media (Gibco) with following additives: 10% dialyzed FBS (Gemini), 0.1 mM NEAA (Gibco), 25 mM HEPES (Gibco), 5 μg/mL blasticidin (Goldbio), 100 μg/mL zeocin (Invitrogen), 600 μg/mL hygromycin (Goldbio). To prepare membranes, cells are scraped and collected in 1× Dulbecco's phosphate buffered saline (Corning) and then pelleted at 1000 RPM's. The cell pellet is reconstituted in membrane preparation buffer (20 mM HEPES, 6 mM MgCl2 and 1 mM EGTA, protease inhibitor tablets (Pierce) adjusted to pH 7.4), homogenized using a dounce homogenizer, and the resulting membrane fraction is pelleted by centrifugation at 12,000 RPM's. The membrane pellet is resuspended in membrane preparation buffer, snap freezed and stored at −80° C. for later use.
Binding Assay for hMC2 Antagonists Protocol:
The hMC2 membrane binding assay utilizes the following components: radiolabel [^125I]ACTH (1-39) Tyr23 (PerkinElmer), wheatgerm agglutinin coated PVT SPA beads (PerkinElmer), crude hMC2R membranes, and compounds. Briefly hMC2R membranes are incubated with SPA beads in binding assay buffer (50 mM HEPES, 5 mM MgCl2, 1 mM CaCl2, 0.2% BSA, protease inhibitor tablets (Pierce) adjusted to pH7.4) prior to assay initiation. A dose response of compound (the final concentration of compound are typically 0-10,000 nM), SPA membranes, and [^125I]ACTH (1-39) Tyr23 at a final concentration of 0.2 nM is plated in a 96-well assay plate and allowed to incubate 1.5 hours at room temperature. Assay plates are read using a Top Count NXT and Ki values for compounds are determined using a GraphPad Prism 6 non-linear regression analysis.

Chain of hMC2 receptor (Q01718 whole entry): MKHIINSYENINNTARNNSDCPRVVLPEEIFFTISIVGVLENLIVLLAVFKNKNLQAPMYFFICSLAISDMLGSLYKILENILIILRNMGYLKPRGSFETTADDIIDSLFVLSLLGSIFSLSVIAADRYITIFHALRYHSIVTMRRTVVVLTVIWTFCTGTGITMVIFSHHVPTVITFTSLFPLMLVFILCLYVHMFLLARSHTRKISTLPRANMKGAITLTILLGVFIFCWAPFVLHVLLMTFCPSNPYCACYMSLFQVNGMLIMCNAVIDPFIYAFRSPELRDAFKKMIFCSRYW
Chain of hMC2 receptor (Q8TCY5 whole entry partner): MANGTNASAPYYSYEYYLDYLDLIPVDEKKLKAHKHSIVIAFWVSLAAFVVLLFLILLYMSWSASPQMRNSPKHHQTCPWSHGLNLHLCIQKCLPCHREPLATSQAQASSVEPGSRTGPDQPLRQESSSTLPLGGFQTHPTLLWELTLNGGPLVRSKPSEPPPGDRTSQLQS

| SMILES | pKi |
| --- | --- |
| CC[C@@H]1CN(C(=O)c2ccc(C(F)(F)F)cc2Cl)CCN1c1ccc(-c2cccc(F)c2F)cc1C(=O)NCCN [Compound 1-1, N-(2-aminoethyl)-4-[(2R)-4-[2-chloro-4-(trifluoromethyl)benzoyl]-2-ethylpiperazin-1-yl]-2′,3′-difluoro-[1,1′-biphenyl]-3-carboxamide] | 7.00 to 8.00 |
| CC[C@@H]1CN(C(=O)c2ccc(C(F)(F)F)cc2Cl)CCN1c1ccc(-c2ccccc2F)cc1C(=O)NCCN [Compound 1-4, N-(2-aminoethyl)-4-[(2R)-4-[2-chloro-4-(trifluoromethyl)benzoyl]-2-ethylpiperazin-1-yl]-2′-fluoro-[1,1′-biphenyl]-3-carboxamide] | 7.00 to 8.00 |
| CC[C@@H]1CN(C(=O)c2ccc(C(F)(F)F)cc2Cl)CCN1c1ccc(-c2ccccc2Cl)cc1C(=O)NCCN [Compound 1-6, N-(2-aminoethyl)-2′-chloro-4-[(2R)-4-[2-chloro-4-(trifluoromethyl)benzoyl]-2-ethylpiperazin-1-yl]-[1,1′-biphenyl]-3-carboxamide] | 7.00 to 8.00 |
| CC[C@@H]1CN(C(=O)c2ccc(C(F)(F)F)cc2Cl)CCN1c1ccc(-c2ccccc2C#N)cc1C(=O)NCCN [Compound 1-7, N-(2-aminoethyl)-4-[(2R)-4-[2-chloro-4-(trifluoromethyl)benzoyl]-2-ethylpiperazin-1-yl]-2′-cyano-[1,1′-biphenyl]-3-carboxamide] | 7.00 to 8.00 |
| CC[C@@H]1CN(C(=O)c2ccc(C(F)(F)F)cc2Cl)CCN1c1ccc(-c2ccccc2C)cc1C(=O)NCCN [Compound 1-8, N-(2-aminoethyl)-4-[(2R)-4-[2-chloro-4-(trifluoromethyl)benzoyl]-2-ethylpiperazin-1-yl]-2′-methyl-[1,1′-biphenyl]-3-carboxamide] | 7.00 to 8.00 |
| CC[C@@H]1CN(C(=O)c2ccc(C(F)(F)F)cc2Cl)CCN1c1ccc(-c2cccc(F)c2Cl)cc1C(=O)NCCN [Compound 1-9, N-(2-aminoethyl)-2′-chloro-4-[(2R)-4-[2-chloro-4-(trifluoromethyl)benzoyl]-2-ethylpiperazin-1-yl]-3′-fluoro-[1,1′-biphenyl]-3-carboxamide] | 7.00 to 8.00 |
| CCCOc1ccccc1-c1ccc(N2CCN(C(=O)c3ccc(C(F)(F)F)cc3Cl)C[C@H]2CC)c(C(=O)NCCN)c1 [Compound 1-11, N-(2-aminoethyl)-4-[(2R)-4-[2-chloro-4-(trifluoromethyl)benzoyl]-2-ethylpiperazin-1-yl]-2′-propoxy-[1,1′-biphenyl]-3-carboxamide] | 7.00 to 8.00 |
| CC[C@@H]1CN(C(=O)c2ccc(C(F)(F)F)cc2Cl)CCN1c1ccc(-c2ccccc2COC)cc1C(=O)NCCN [Compound 1-16, (R)-N-(2-aminoethyl)-4-(4-(2-chloro-4-(trifluoromethyl)benzoyl)-2-ethylpiperazin-1-yl)-2′-(methoxymethyl)-[1,1′-biphenyl]-3-carboxamide] | 7.00 to 8.00 |
| CCOc1ccccc1-c1ccc(N2CCN(C(=O)c3ccc(C)cc3-c3ccc(CN)cc3)C[C@H]2CC)c(C(=O)NCCN)c1 [Compound 1-18, (R)-N-(2-aminoethyl)-4-(4-(4′-(aminomethyl)-5-methyl-[1,1′-biphenyl]-2-carbonyl)-2-ethylpiperazin-1-yl)-2′-ethoxy-[1,1′-biphenyl]-3-carboxamide] | > 8.00 |
| CC[C@@H]1CN(C(=O)c2ccc(C(F)(F)F)cc2Cl)CCN1c1ccc(-c2ccccc2C(=O)OC)cc1C(=O)NCCN [Compound 1-19, methyl (R)-3′-((2-aminoethyl)carbamoyl)-4′-(4-(2-chloro-4-(trifluoromethyl)benzoyl)-2-ethylpiperazin-1-yl)-[1,1′-biphenyl]-2-carboxylate] | 7.00 to 8.00 |

The remaining lines, values ahead:

| pKi | SMILES |
| --- | --- |
| > 8.00 | CCOc1ncccc1-c1ccc(N2CCN(C(=O)OC(C(C)(C)C)C(F)(F)F)C[C@H]2CC)c(C(=O)N[C@@H]2CCNC2)n1 (single isomer, unassigned) [Compound 1-367, (2S*)-1,1,1-trifluoro-3,3-dimethylbutan-2-yl (3R)-4-(2′-ethoxy-6-{[(3R)-pyrrolidin-3-yl]carbamoyl}-[2,3′-bipyridin]-5-yl)-3-ethylpiperazine-1-carboxylate] |
| > 8.00 | CCOc1ncccc1-c1ccc(N2CCN(C(=O)OC(C(C)(C)C)C(F)(F)F)C[C@H]2CC)c(C(=O)N[C@@H]2CCN(C)C2)n1 (single isomer, unassigned) [Compound 1-392, (2S*)-1,1,1-trifluoro-3,3-dimethylbutan-2-yl (3R)-4-(2′-ethoxy-6-{[(3R)-1-methylpyrrolidin-3-yl]carbamoyl}-[2,3′-bipyridin]-5-yl)-3-ethylpiperazine-1-carboxylate] |
| > 8.00 | CCOc1ncccc1-c1ccc(N2CCN(C(=O)O[C@@H](C(C)(C)C)C(F)(F)F)C[C@H]2CC)c(C(=O)NCC2CN(C)C2)n1 (single isomer, unassigned) [Compound 1-396, (2S)-1,1,1-trifluoro-3,3-dimethylbutan-2-yl (3R)-4-(2′-ethoxy-6-{[(1-methylazetidin-3-yl)methyl]carbamoyl}-[2,3′-bipyridin]-5-yl)-3-ethylpiperazine-1-carboxylate; or (2R)-1,1,1-trifluoro-3,3-dimethylbutan-2-yl (3R)-4-(2′-ethoxy-6-{[(1-methylazetidin-3-yl)methyl]carbamoyl}-[2,3′-bipyridin]-5-yl)-3-ethylpiperazine-1-carboxylate] |
| > 8.00 | CCOc1ncccc1-c1ccc(N2CCN(C(=O)O[C@H](C(C)(C)C)C(F)(F)F)C[C@H]2CC)c(C(=O)N[C@@H]2CCN(C)C2)n1 (single isomer, unassigned) [Compound 1-406] |
| > 8.00 | CCOc1ncccc1-c1ccc(N2CCN(C(=O)O[C@@H](C(C)(C)C)C(F)(F)F)C[C@H]2CC)c(C(=O)N[C@@H]2CCN(C)C2)n1 (single isomer, unassigned) [Compound 1-407] |
| > 8.00 | CC[C@@H]1CN(C(=O)c2ccc(C(F)(F)F)cc2Cl)CCN1c1ccc(-c2ccccc2OC)cc1C(=O)NCCN [Compound 1-2, N-(2-aminoethyl)-4-[(2R)-4-[2-chloro-4-(trifluoromethyl)benzoyl]-2-ethylpiperazin-1-yl]-2′-methoxy-[1,1′-biphenyl]-3-carboxamide] |
| > 8.00 | CCOc1ccccc1-c1ccc(N2CCN(C(=O)c3ccc(C(F)(F)F)cc3Cl)C[C@H]2CC)c(C(=O)NCCN)c1 [Compound 1-3, N-(2-aminoethyl)-4-[(2R)-4-[2-chloro-4-(trifluoromethyl)benzoyl]-2-ethylpiperazin-1-yl]-2′-ethoxy-[1,1′-biphenyl]-3-carboxamide] |
| > 8.00 | CCOc1ccccc1-c1ccc(N2CCN(C(=O)c3ccc(Cl)cc3Cl)C[C@H]2CC)c(C(=O)NCCN)c1 [Compound 1-15, (R)-N-(2-aminoethyl)-4-(4-(2,4-dichlorobenzoyl)-2-ethylpiperazin-1-yl)-2′-ethoxy-[1,1′-biphenyl]-3-carboxamide] |
| > 8.00 | CCOc1ccccc1-c1ccc(N2CCN(C(=O)c3ccc(F)cc3-c3ccc(CN)cc3)C[C@H]2CC)c(C(=O)NCCN)c1 [Compound 1-17, N-(2-aminoethyl)-4-[(2R)-4-[4′-(aminomethyl)-5-fluoro-[1,1′-biphenyl]-2-carbonyl]-2-ethylpiperazin-1-yl]-2′-ethoxy-[1,1′-biphenyl]-3-carboxamide] |

Reference: patent US10981894B2, “Melanocortin subtype-2 receptor (MC2R) antagonists and uses thereof” (Crinetics Pharmaceuticals, Inc., priority 2018, dated 2021)
